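Growth conditions: 96-well plates. Treatment: test compound, 48 hours, 5 concentrations. Analysis: linear interpolation between bracketing concentrations; unreached endpoints set to highest concentration. The concentration for 50% growth inhibition is given as GI50. TGI denotes the concentration required for complete inhibition of growth.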

Some test systems named below: A549 NSCLC; BT-549 breast; CCRF-CEM leukemia; HCC-2998 colon; LOX IMVI melanoma; NCI-H226 lung; SF-539 CNS; UACC-62 melanoma.
Test in all cases: DTP human tumour cell line panel, 48 h

As for `CCN1C(=O)N(CC)C2C1NN=c1s/c(=C3\C(=O)N(CC(C)C)c4ccccc43)c(=O)n12` (configuration not stated), the GI50 in the assay on A549 NSCLC is 0.957 µM; in the assay on BT-549 breast, 2.45 µM; with CCRF-CEM leukemia, 0.464 µM; in the assay with HCC-2998 colon, 2.38 µM; in the assay on LOX IMVI melanoma it was 0.811 µM; in the assay on NCI-H226 lung, 2.39 µM. The GI50 in the assay on SF-539 CNS is 0.327 µM; with UACC-62 melanoma, 0.603 µM. In addition, the TGI in the assay with A549 NSCLC, in the assay on BT-549 breast, with CCRF-CEM leukemia, with HCC-2998 colon, in the assay on LOX IMVI melanoma and with NCI-H226 lung was above 100 µM throughout. Moreover, the concentration for total growth inhibition (TGI) with SF-539 CNS is 1.66 µM; with UACC-62 melanoma, 65.5 µM.

Regarding `CCOC(=O)Cc1csc(/N=C2\NC(=O)/C(=C3\C(=O)N(C)c4ccccc43)S2)n1`, the GI50 with A549 NSCLC is 36.5 µM; in the assay with BT-549 breast, 48.4 µM; in the assay on CCRF-CEM leukemia it was 26.1 µM; in the assay with HCC-2998 colon, 46.1 µM; with LOX IMVI melanoma it was 34.6 µM; in the assay on NCI-H226 lung, 28.6 µM. In addition, the GI50 with SF-539 CNS was 43.8 µM; with UACC-62 melanoma, 26.1 µM. Besides, the TGI in the assay with A549 NSCLC was above 100 µM; in the assay on BT-549 breast, above 100 µM; with CCRF-CEM leukemia, 61.9 µM; with HCC-2998 colon, above 100 µM; with LOX IMVI melanoma, above 100 µM; with NCI-H226 lung, above 100 µM. The total growth inhibition concentration (TGI) is above 100 µM with SF-539 CNS and 83.6 µM in the assay on UACC-62 melanoma.

For the molecule `CCCc1ccc(S(=O)(=O)N[C@H]2CC[C@H]3[C@@H]4CCc5cc(O)ccc5[C@H]4CC[C@]23C)cc1`, the GI50 in the assay on A549 NSCLC was 3.22 µM; with BT-549 breast it was 2.47 µM; in the assay with CCRF-CEM leukemia it was 2.72 µM; in the assay with HCC-2998 colon it was 4 µM; in the assay on LOX IMVI melanoma, 1.72 µM; in the assay on NCI-H226 lung, 1.57 µM. Also, the GI50 with SF-539 CNS is 2.12 µM; in the assay on UACC-62 melanoma, 1.92 µM. The TGI is 12.8 µM in the assay with A549 NSCLC; 5.89 µM in the assay on BT-549 breast; 12 µM with CCRF-CEM leukemia; 13.7 µM in the assay with HCC-2998 colon; 3.17 µM in the assay on LOX IMVI melanoma; 3.15 µM with NCI-H226 lung. Besides, the results for the TGI in the assay on SF-539 CNS and in the assay with UACC-62 melanoma were 4.46 µM and 4.37 µM, respectively.

On to `c1ccc2[nH]c(SSc3nc4ncncc4[nH]3)nc2c1`, for which the GI50 in the assay with A549 NSCLC is 19.4 µM; in the assay with BT-549 breast it was 2.89 µM; in the assay on CCRF-CEM leukemia, 1.37 µM; in the assay with HCC-2998 colon, 1.9 µM; with LOX IMVI melanoma it was 0.279 µM; with NCI-H226 lung, 9.52 µM. In addition, the figures for the GI50 with SF-539 CNS and with UACC-62 melanoma were 0.989 µM and 0.729 µM, respectively. Further, the TGI with A549 NSCLC is above 100 µM; with BT-549 breast it was above 100 µM; in the assay on CCRF-CEM leukemia, above 100 µM; in the assay on HCC-2998 colon it was above 100 µM; in the assay with LOX IMVI melanoma, above 44.6 µM; with NCI-H226 lung, above 100 µM. The total growth inhibition concentration (TGI) in the assay on SF-539 CNS and in the assay with UACC-62 melanoma was above 100 µM each time.

`CC1(C)NCCC[C@]2(C)[C@H]3C=CC4=C5C[C@](C)(CO)CC[C@]5(C)CC[C@@]4(C)[C@]3(C)CC[C@@H]12`: the GI50 in the assay with A549 NSCLC is 1.89 µM; in the assay on BT-549 breast, 3.46 µM; in the assay on CCRF-CEM leukemia, 3.52 µM; in the assay with HCC-2998 colon, 10.1 µM; in the assay on LOX IMVI melanoma it was 2.49 µM; with NCI-H226 lung, 4 µM. In addition, the GI50 is 2.69 µM in the assay with SF-539 CNS and 3.13 µM in the assay with UACC-62 melanoma. The TGI with A549 NSCLC was 3.71 µM; in the assay on BT-549 breast, 12.7 µM; in the assay on CCRF-CEM leukemia, 14.6 µM; with HCC-2998 colon, 23 µM; in the assay on LOX IMVI melanoma, 6.76 µM; in the assay with NCI-H226 lung, 16.9 µM. The concentration for total growth inhibition (TGI) with SF-539 CNS was determined as 9.26 µM; with UACC-62 melanoma it was 10.9 µM.

With `O=[N+]([O-])c1ccc(-c2nc(N(CCO)CCO)c3ccccc3n2)o1`, the GI50 in the assay with A549 NSCLC was 0.128 µM; in the assay with BT-549 breast it was 0.174 µM; in the assay on CCRF-CEM leukemia, 1.14 µM; in the assay with HCC-2998 colon it was 0.194 µM; with LOX IMVI melanoma, 0.269 µM; in the assay with NCI-H226 lung it was 0.216 µM. The GI50 in the assay with SF-539 CNS was 0.272 µM; in the assay with UACC-62 melanoma, 0.196 µM. Besides, the concentration for total growth inhibition (TGI) in the assay with A549 NSCLC amounted to 0.822 µM; in the assay on BT-549 breast, 0.758 µM; in the assay with CCRF-CEM leukemia, 64.1 µM; in the assay on HCC-2998 colon, 0.442 µM; with LOX IMVI melanoma it was 1.64 µM; with NCI-H226 lung, 1.05 µM. Besides, the concentration for total growth inhibition (TGI) was 1.24 µM with SF-539 CNS and 0.477 µM in the assay with UACC-62 melanoma.

`COc1ccc(CNc2nc3cc(N)cc(N)c3nc2-c2ccccc2)cc1OC`: the GI50 in the assay with A549 NSCLC was 23.6 µM; in the assay with BT-549 breast it was 14.8 µM; in the assay with CCRF-CEM leukemia, 3.48 µM; in the assay on HCC-2998 colon, 17 µM; in the assay with LOX IMVI melanoma, 6.53 µM; in the assay on NCI-H226 lung it was 15.4 µM. The GI50 in the assay on SF-539 CNS is 18.9 µM; with UACC-62 melanoma, 11.7 µM. Also, the concentration for total growth inhibition (TGI) in the assay on A549 NSCLC is above 70.6 µM; in the assay on BT-549 breast, 32.5 µM; with CCRF-CEM leukemia it was 71.5 µM; in the assay on HCC-2998 colon it was 39.8 µM; with LOX IMVI melanoma, above 37.6 µM; with NCI-H226 lung it was 30.8 µM. Also, the concentration for total growth inhibition (TGI) with SF-539 CNS is 41.1 µM; in the assay with UACC-62 melanoma, 24.9 µM.

As usually defined, the GI50 is the concentration giving 50% growth inhibition. In general, TGI refers to the concentration giving total growth inhibition. Read a high TGI as lower sensitivity of the cells.

These data come from PubChem BioAssay (NCI).
